Source: ChEMBL document CHEMBL5661955, “ASAP - In vitro cytotoxicity” (2024)
Several values for one entry are separate records, joined by “and”; a condition that tells them apart may be missing. Identical values can stand only once.

Tests used:
[1] = Functional assay to measure dose dependent changes in cell viability from drug treatment in Vero E6 miRFP670 cells (cotreated with P-gp inhibitor, CP100356) that are infected with Dengue virus type 2 New Guinea C. […] Cytotoxicity is reported via via analysis of DAPI count using high-content imager. The assay has been performed by KU Leuven.; assay type: toxicity, cell-based, Vero C1008; details: chlorocebus sabaeus, with CP100356 (P-gp inhibitor, concentration not stated); p-gp concentration 500 nM
[2] = Functional CPE-based assay to measure dose dependent changes in cell viability from drug treatment in Vero E6 miRFP670 cells. Cells are treated with antiviral candidates that have been serially diluted. Cytotoxicity is reported via analysis of MTS assays in uninfected cells. The assay has been performed by KU Leuven.; assay type: toxicity, Vero C1008; details: chlorocebus sabaeus, Vero E6 miRFP670 cells
[3] = Functional metabolic assay to measure dose dependent changes in cell viability from drug treatment in Vero E6/TMPRSS2 cells (cotreated with P-gp inhibitor, Elacridar). […] Cytotoxicity is reported via measuring absorbance and analysis of MTT/MTS assays in uninfected cells. The assay has been performed by Icahn School of Medicine at Mount Sinai.; assay type: toxicity, cell-based, VeroE6/TMPRSS2; details: chlorocebus sabaeus, p-gp concentration 2 uM
[4] = Vero E6/TMPRSS2 cells, with Elacridar (P-gp inhibitor, concentration not stated)

O=C(Nc1ccc2c(c1)CNC2)c1cc(Cl)cc(-n2cccc2)c1
CC50 [1]: > 50 µM | CC50 [2]: > 50 µM | CC50 [3, 4]: 46.4 µM | CC10 ([3]; veroe6/tmprss2): 17.502 µM and 9.003 µM | CC50 ([3]; veroe6/tmprss2): 34.8 µM

CCOc1cccc(-c2ccc(S(=O)(=O)Nc3ccc(Cl)cc3C(=O)O)cc2C)c1
CC50 [1]: 21.9 µM | CC50 [2]: 36.1 µM | CC50 [3, 4]: > 50 µM | CC10 ([3]; veroe6/tmprss2): 0.027 µM

NCc1cccc(NC(=O)c2cc(Cl)cc(-n3cccc3)c2)c1
CC50 [1]: > 50 µM | CC50 [2]: 25.7 µM | CC50 [3, 4]: > 50 µM | CC10 ([3]; veroe6/tmprss2): > 50 µM

NCc1cccc(CCc2cc(Cl)cc(NC(=O)OCc3ccccc3)c2)c1
CC50 [1]: 11.9 µM | CC50 [2]: 5.46 µM | CC50 [3, 4]: 29.7 µM | CC10 ([3]; veroe6/tmprss2): 2.058 µM

CC(C)Cc1nc2c(C(=O)Nc3ccc4c(c3)CNC4)cc(Br)cc2[nH]1
CC50 [1]: 0.864 µM | CC50 [2]: 0.623 µM | CC50 [3, 4]: 20.9 µM | CC10 ([3]; veroe6/tmprss2): 0.569 µM

CC(C)OC(=O)Nc1cc(Cl)cc(C(=O)Nc2cccc(CN)c2)c1
CC50 [1]: 4.99 µM | CC50 [2]: 20.5 µM | CC50 [3, 4]: > 50 µM | CC10 ([3]; veroe6/tmprss2): < 0.023 µM

O=C(Nc1cc(Cl)cc(C(=O)Nc2cccc(C3CCNCC3)c2)c1)OCc1ccccc1
CC50 [1]: 11.8 µM | CC50 [2]: 5.29 µM | CC50 [3, 4]: > 10 µM | CC50 ([3]; veroe6/tmprss2): 13.5 µM

Clc1ccc2[nH]cc(Cc3ccc(-c4nn[nH]n4)cc3)c2c1
CC50 [1]: 19.3 µM | CC50 [2]: > 50 µM | CC50 [3, 4]: > 50 µM | CC10 ([3]; veroe6/tmprss2): > 50 µM

N#C[C@H](Nc1ccc2c(c1)CNC2)c1cc(Cl)cc2[nH]ncc12
CC50 [2]: > 50 µM | CC50 [3, 4]: > 50 µM | CC10 ([3]; veroe6/tmprss2): > 50 µM

O=C(Nc1ccc2c(c1)CNC2)c1cccc2[nH]ncc12
CC50 [1]: 15.4 µM | CC50 [2]: 11.5 µM | CC50 [3, 4]: > 50 µM | CC10 ([3]; veroe6/tmprss2): > 50 µM

O=C(Nc1cc(Cl)cc([C@H]2CN(Cc3ccccc3)C[C@@H]2c2cccc(-c3nn[nH]n3)c2)c1)OCc1ccccc1
CC50 [1]: 12.3 µM | CC50 [2]: 12.5 µM | CC50 [3, 4]: > 50 µM | CC10 ([3]; veroe6/tmprss2): 34.224 µM

OCC#C[C@H](Nc1ccc2c(c1)CNC2)c1cc(Cl)cc2[nH]ncc12
CC50 [1]: > 50 µM | CC50 [2]: > 50 µM

COC(=O)c1cc(NC(=O)c2cc(Cl)cc(NC(=O)OCc3ccccc3)c2)cc(-c2nnn[nH]2)c1
CC50 [2]: 35.2 µM | CC50 [3, 4]: > 50 µM | CC10 ([3]; veroe6/tmprss2): > 50 µM

O=C(Nc1ccc2c(c1)CNC2)c1cc(Cl)cc(C2CC2)c1
CC50 [1]: 11.2 µM | CC50 [2]: 10.5 µM | CC50 [3, 4]: > 50 µM | CC10 ([3]; veroe6/tmprss2): 0.136 µM

Cn1ncc2c(C(=O)Nc3ccc4c(c3)CNC4)cc(Br)cc21
CC50 [1]: > 50 µM | CC50 [2]: > 50 µM

O=C(Nc1ccc2c(c1)CNC2)c1cc(Br)cc2[nH]c(-c3ccccc3)nc12
CC50 [1]: 3.3 µM | CC50 [2]: 10.7 µM | CC50 [3, 4]: 14.3 µM | CC10 ([3]; veroe6/tmprss2): 0.098 µM

CCCNC(=O)[C@H](Nc1cccc(-c2nn[nH]n2)c1)c1cc(Cl)cc(NC(=O)OCc2ccccc2)c1
CC50 [1]: > 50 µM | CC50 [2]: > 50 µM

O=C(Nc1ccc(C2CNC2)cc1)c1cc(Cl)cc2[nH]ncc12
CC50 [1]: > 50 µM | CC50 [2]: > 50 µM

NCc1cccc(NC(=O)c2cc(Cl)cc(C(N)=O)c2)c1
CC50 [1]: > 50 µM | CC50 [2]: > 50 µM

O=C(Nc1cc(Cl)cc(C(=O)Nc2ccc3c(c2)CNCC3)c1)OCc1ccccc1
CC50 [1]: 3.27 µM | CC50 [2]: 2.85 µM

COc1cccc(-c2ccc([C@@H](NC(=O)OCc3ccccc3)C(=O)Nc3cccc(CN)c3)cc2)c1
CC50 [1]: 23.1 µM | CC50 [2]: 6.76 µM

C[C@@]1(c2cccc(CN)c2)C[C@H]1c1cc(Cl)cc(NC(=O)OCc2ccccc2)c1
CC50 [1]: 6.46 µM | CC50 [2]: 2.61 µM

NCc1cccc(NC(=O)[C@H](NC(=O)OCc2ccccc2)C2CCC(c3ccccc3)CC2)c1 (stereo not given in full)
CC50 [1]: 11.5 µM | CC50 [2]: 4.58 µM

O=C(O)COc1cccc(NC(=O)c2cc(Cl)cc(NC(=O)OCc3ccccc3)c2)c1
CC50 [2]: > 50 µM | CC50 [3, 4]: > 50 µM | CC10 ([3]; veroe6/tmprss2): > 50 µM

O=C(O)c1cc(Cl)c(F)cc1S(=O)(=O)Nc1ccc(Oc2ccccc2Cl)cc1
CC50 [1]: > 50 µM | CC50 [2]: > 50 µM

NCc1cccc(NC(=O)c2cc(Cl)cc3c2cnn3CC2CC2)c1
CC50 [1]: 24.1 µM | CC50 [2]: 20.7 µM
